Reference: US12582654B2, “Cyano-substituted pyridine and cyano-substituted pyrimidine compound and preparation method therefor and application thereof” (BEIJING SCITECH-MQ PHARMACEUTICALS LIMITED, priority 2019, dated 2026)

Legend:
[1] = molecular target: T1, Ba/F3 ETV6-FGFR4-V550L cells (Homo sapiens, UniProt P22455, V550L, cells depend on it); assay: Inhibition of cell proliferation (CCK-8), Ba/F3 ETV6-FGFR4-V550L cells; type: cell-based; settings: 72 hours of incubation, read-out: Ba/F3 ETV6-FGFR4-V550L IC50
T1 construct: fused on or other part: N-terminal part of ETV6 (TEL), the oligomerising partner of the fusion; already named as the first entry; P41212 (Transcription factor ETV6)
Summary of the method: (§1)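 Ba/F3 cells expressing ETV6-FGFR4 or ETV6-FGFR4-V550L exposed for 72 h to 9 concentrations from 4-fold serial dilution (0.25% DMSO final). Viability by CCK-8, OD 450 nm after 1–2 h at 37 °C, relative to untreated and cell-free blanks; IC50 from curve fitting.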

[2] = molecular target: T2, Ba/F3 ETV6-FGFR4 cells (Homo sapiens, UniProt P22455); assay: Inhibition of cell proliferation (CCK-8), Ba/F3 ETV6-FGFR4 cells; type: cell-based; settings: 72 hours of incubation, read-out: Ba/F3 ETV6-FGFR4 IC50
T2 construct: fused on or other part: N-terminal part of ETV6 (TEL), the oligomerising partner that makes the FGFR4 kinase constitutively active; P41212 (Transcription factor ETV6)
Summary of the method: as §1

[3] = molecular target: FGFR4 kinase (Homo sapiens, UniProt P22455); assay: Inhibition of FGFR4 kinase activity (ULight-labeled JAK-1 peptide, EU665/EU615 reading); type: biochemical; settings: FGFR4 kinase 3.85 nM, ATP 100 μM, enzymatic reaction 2 hours
Summary of the method: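 TR-FRET kinase assay using 3.85 nM FGFR4, 100 μM ATP and 100 nM ULight-JAK-1 (Tyr1023) peptide; 5 min enzyme–compound preincubation, then 2 h at room temperature. Compounds at 11 3-fold dilutions from 2.5 μM down to 0.042 nM, 1% DMSO. IC50 from EU665/EU615 ratio inhibition curves.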

[4] = molecular target: FGFR4 V550L kinase (Homo sapiens, UniProt P22455, V550L); assay: Inhibition of FGFR4 V550L mutant kinase activity (ULight-labeled PolyGT, EU665/EU615 reading); type: biochemical; settings: FGFR4 V550L kinase 1 nM, ATP 10 μM, enzymatic reaction 2 hours
Summary of the method: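 TR-FRET kinase assay: 1 nM FGFR4 V550L, 10 μM ATP, 100 nM ULight-PolyGT substrate, 2 h at room temperature after 5 min compound–enzyme preincubation, 1% DMSO. Compound tested as 11-point 3-fold dilution from 2.5 μM to 0.042 nM final. Signal as EU665/EU615 ratio; IC50 fitted from % inhibition.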

Chain of FGFR4 kinase (P22455 22-802): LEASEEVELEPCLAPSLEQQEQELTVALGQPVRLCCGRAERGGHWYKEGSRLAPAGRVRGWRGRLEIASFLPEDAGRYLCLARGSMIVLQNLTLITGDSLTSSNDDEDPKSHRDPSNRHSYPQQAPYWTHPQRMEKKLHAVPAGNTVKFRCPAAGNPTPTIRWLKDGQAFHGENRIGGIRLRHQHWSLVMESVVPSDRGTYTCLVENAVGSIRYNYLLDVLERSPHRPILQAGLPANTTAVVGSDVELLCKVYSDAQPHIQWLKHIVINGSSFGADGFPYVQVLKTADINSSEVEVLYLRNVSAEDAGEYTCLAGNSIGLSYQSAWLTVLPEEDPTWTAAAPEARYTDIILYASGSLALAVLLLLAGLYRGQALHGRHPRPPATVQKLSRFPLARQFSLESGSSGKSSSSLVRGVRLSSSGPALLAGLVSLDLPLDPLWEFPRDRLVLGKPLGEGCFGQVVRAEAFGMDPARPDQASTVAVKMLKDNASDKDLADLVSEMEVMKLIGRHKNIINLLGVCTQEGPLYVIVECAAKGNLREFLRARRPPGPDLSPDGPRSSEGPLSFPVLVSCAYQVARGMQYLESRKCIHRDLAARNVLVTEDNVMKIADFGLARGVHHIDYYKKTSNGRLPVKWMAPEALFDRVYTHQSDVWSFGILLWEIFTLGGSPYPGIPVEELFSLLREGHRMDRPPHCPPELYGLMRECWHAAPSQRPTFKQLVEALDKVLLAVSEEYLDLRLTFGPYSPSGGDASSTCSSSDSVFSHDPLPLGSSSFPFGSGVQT
Chain of FGFR4 V550L kinase (P22455 22-802 V550L): as the sequence (P22455 22-802) above, with V529L counted along it
T1 sequence (P22455 whole entry V550L, the tested form may be a part): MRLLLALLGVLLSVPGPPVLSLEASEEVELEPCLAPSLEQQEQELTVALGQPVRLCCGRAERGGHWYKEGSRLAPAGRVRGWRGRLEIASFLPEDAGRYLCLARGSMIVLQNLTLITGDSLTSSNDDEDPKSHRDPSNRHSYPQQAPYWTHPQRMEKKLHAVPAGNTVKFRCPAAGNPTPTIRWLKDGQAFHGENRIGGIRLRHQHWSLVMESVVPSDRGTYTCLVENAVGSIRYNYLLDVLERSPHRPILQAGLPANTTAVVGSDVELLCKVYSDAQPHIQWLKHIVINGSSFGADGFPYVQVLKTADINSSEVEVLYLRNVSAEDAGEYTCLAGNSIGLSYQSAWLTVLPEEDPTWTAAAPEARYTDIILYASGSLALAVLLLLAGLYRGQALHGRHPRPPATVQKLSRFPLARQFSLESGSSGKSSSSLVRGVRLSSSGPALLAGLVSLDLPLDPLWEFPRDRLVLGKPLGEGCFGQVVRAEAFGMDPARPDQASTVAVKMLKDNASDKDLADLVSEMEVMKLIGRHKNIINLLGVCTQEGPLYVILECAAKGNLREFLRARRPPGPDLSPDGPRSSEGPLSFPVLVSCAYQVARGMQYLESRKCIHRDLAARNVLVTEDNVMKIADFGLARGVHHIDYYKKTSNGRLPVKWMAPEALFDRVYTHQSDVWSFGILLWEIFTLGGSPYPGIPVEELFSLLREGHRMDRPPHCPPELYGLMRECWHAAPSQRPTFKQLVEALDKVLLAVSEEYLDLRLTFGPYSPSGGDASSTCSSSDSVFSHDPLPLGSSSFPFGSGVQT
T2 sequence (P22455 whole entry, change not shown, the tested form may be a part): as the sequence (P22455 whole entry V550L, the tested form may be a part) above, with L550V counted along it

SMILES | GI50 [1] [nM] | GI50 [2] [nM] | IC50 [3] [nM] | IC50 [4] [nM]
C=CC(=O)Nc1cc(N2CCC(N3CCN(C(C)=O)CC3)CC2)ccc1Nc1ncc(C#N)c(Nc2ccccc2OC(C)C)n1 [Example 50, N-(5-(4-(4-acetylpiperazin-1-yl)piperidin-1-yl)-2-((5-cyano-4-((2-isopropoxyphenyl)amino)pyrimidin-2-yl)amino)phenyl) acrylamide] | ≤ 10 | ≤ 10 | 10 to 50 | ≤ 10
C=CC(=O)Nc1cc(N2CCN(CC)CC2)ccc1Nc1ncc(C#N)c(Nc2ccc(O)cc2OC(C)C)n1 [Example 28, N-(2-((5-cyano-4-((4-hydroxy-2-isopropoxyphenyl)amino)pyrimidin-2-yl)amino)-5-(4-ethylpiperazin-1-yl)phenyl) acrylamide] | 50 to 100 | 100 to 1000 | ≤ 10 | ≤ 10
C=CC(=O)Nc1cc(N2CCC(N3CCOCC3)CC2)c(F)cc1Nc1ncc(C#N)c(Nc2ccccc2OC(C)C)n1 [Example 19, N-(2-((5-cyano-4-((2-isopropoxyphenyl)amino)pyrimidin-2-yl)amino)-4-fluoro-5-(4-morpholinopiperidin-1-yl)phenyl) acrylamide] | ≤ 10 | ≤ 10 | 100 to 1000 | 10 to 50
C=CC(=O)Nc1cc(N2CCC(N3CCCCC3)CC2)ccc1Nc1ncc(C#N)c(Nc2ccccc2OC(C)C)n1 [Example 4, N-(5-([1,4′-bipiperidin]-1′-yl)-2-((5-cyano-4-((2-isopropoxyphenyl)amino)pyrimidin-2-yl)amino)phenyl) acrylamide] | ≤ 10 | ≤ 10 | 10 to 50 | ≤ 10
C=CC(=O)Nc1cc(N2CCN(CC)CC2)ccc1Nc1ncc(C#N)c(Nc2c(F)cccc2OC(C)C)n1 [Example 21, N-(2-((5-cyano-4-((2-fluoro-6-isopropoxyphenyl)amino)pyrimidin-2-yl)amino)-5-(4-ethylpiperazin-1-yl)phenyl) acrylamide] | 10 to 50 | ≤ 10 | 10 to 50 | 10 to 50
C=CC(=O)Nc1cc(N2CCC(N3CCCC3)CC2)c(C)cc1Nc1ncc(C#N)c(Nc2ccccc2OC(C)C)n1 [Example 10, N-(2-((5-cyano-4-((2-isopropoxyphenyl)amino)pyrimidin-2-yl)amino)-4-methyl-5-(4-(pyrrolidin-1-yl)piperidin-1-yl)phenyl) acrylamide] | 10 to 50 | ≤ 10 | 10 to 50 | 10 to 50
C=CC(=O)Nc1cc(N2CCN(CC)CC2)c(C)cc1Nc1ncc(C#N)c(Nc2ccccc2OC(C)C)n1 [Example 8, N-(2-((5-cyano-4-((2-isopropoxyphenyl)amino)pyrimidin-2-yl)amino)-5-(4-ethylpiperazin-1-yl)-4-methylphenyl) acrylamide] | ≤ 10 | ≤ 10 | 10 to 50 | ≤ 10
C=CC(=O)Nc1cc(N2CCN(CC)CC2)ccc1Nc1ncc(C#N)c(Nc2ccc(Cl)cc2OC(C)C)n1 [Example 29, N-(2-((4-((4-chloro-2-isopropoxyphenyl)amino)-5-cyanopyrimidin-2-yl)amino)-5-(4-ethylpiperazin-1-yl)phenyl) acrylamide] | ≤ 10 | ≤ 10 | 10 to 50 | 10 to 50
C=CC(=O)Nc1cc(N2CCC(N3CCN(C)CC3)CC2)c(F)cc1Nc1ncc(C#N)c(Nc2ccccc2OC(C)C)n1 [Example 20, N-(2-((5-cyano-4-((2-isopropoxyphenyl)amino)pyrimidin-2-yl)amino)-4-fluoro-5-(4-(4-methylpiperazin-1-yl)piperidin-1-yl)phenyl) acrylamide] | ≤ 10 | ≤ 10 | 10 to 50 | 10 to 50
C=CC(=O)Nc1cc(N2CCN(CC)CC2)ccc1Nc1ncc(C#N)c(Nc2cc(C)ccc2OC(C)C)n1 [Example 24, N-(2-((5-cyano-4-((2-isopropoxy-5-methylphenyl)amino)pyrimidin-2-yl)amino)-5-(4-ethylpiperazin-1-yl)phenyl) acrylamide] | ≤ 10 | 10 to 50 | 10 to 50 | 10 to 50
C=CC(=O)Nc1cc(N2CCC(N3CCN(CCOC)CC3)CC2)ccc1Nc1ncc(C#N)c(Nc2ccccc2OC(C)C)n1 [Example 58, N-(2-((5-cyano-4-((2-isopropoxyphenyl)amino)pyrimidin-2-yl)amino)-5-(4-(4-(2-methoxyethyl)piperazin-1-yl)piperidin-1-yl)phenyl) acrylamide] | ≤ 10 | ≤ 10 | 10 to 50 | ≤ 10
C=CC(=O)Nc1cc(N2CCC(N3CCN(C)CC3)CC2)ccc1Nc1ncc(C#N)c(Nc2ccc(C(=O)O)cc2OC(C)C)n1 [Example 52, 4-((2-((2-acrylamido-4-(4-(4-methylpiperazin-1-yl)piperidin-1-yl)phenyl)amino)-5-cyanopyrimidin-4-yl)amino)-3-isopropoxybenzoic acid] | 100 to 1000 | 100 to 1000 | ≤ 10 | ≤ 10
C=CC(=O)Nc1cc(N2CCN(CC)CC2)ccc1Nc1ncc(C#N)c(Nc2ccc(C(F)(F)F)cc2OC(C)C)n1 [Example 34, N-(2-((5-cyano-4-((2-isopropoxy-4-(trifluoromethyl)phenyl)amino)pyrimidin-2-yl)amino)-5-(4-ethylpiperazin-1-yl)phenyl) acrylamide] | 10 to 50 | 10 to 50 | 50 to 100 | 10 to 50

Other lines, results leading:

GI50 [1] [nM] | GI50 [2] [nM] | IC50 [3] [nM] | IC50 [4] [nM] | SMILES
≤ 10 | ≤ 10 | 50 to 100 | ≤ 10 | C=CC(=O)Nc1cc(N2CCC(N3CCC3)CC2)ccc1Nc1ncc(C#N)c(Nc2ccccc2OC(C)C)n1 [Example 70, N-(5-(4-(azetidin-1-yl)piperidin-1-yl)-2-((5-cyano-4-((2-isopropoxyphenyl)amino)pyrimidin-2-yl)amino)phenyl) acrylamide]
≤ 10 | ≤ 10 | ≤ 10 | ≤ 10 | C=CC(=O)Nc1cc(N2CCC(N(C)CCCS(C)(=O)=O)CC2)ccc1Nc1ncc(C#N)c(Nc2ccccc2OC(C)C)n1 [Example 75, N-(2-((5-cyano-4-((2-isopropoxyphenyl)amino)pyrimidin-2-yl)amino)-5-(4-(methyl(3-(methylsulfonyl)propyl)amino)piperidin-1-yl)phenyl) acrylamide]
≤ 10 | ≤ 10 | 10 to 50 | ≤ 10 | C=CC(=O)Nc1cc(N2CCC(N(C)CCF)CC2)ccc1Nc1ncc(C#N)c(Nc2ccccc2OC(C)C)n1 [Example 61, N-(2-((5-cyano-4-((2-isopropoxyphenyl)amino)pyrimidin-2-yl)amino)-5-(4-((2-fluoroethyl) (methyl)amino)piperidin-1-yl)phenyl) acrylamide]
10 to 50 | 10 to 50 | 10 to 50 | 50 to 100 | C=CC(=O)Nc1cc(N2CCC(N3CCN(C)CC3)CC2)ccc1Nc1ncc(C#N)c(Nc2ccccc2CC(C)C)n1 [Example 79, N-(2-((5-cyano-4-((2-isobutylphenyl)amino)pyrimidin-2-yl)amino)-5-(4-(4-methylpiperazin-1-yl)piperidin-1-yl)phenyl)acrylamide]
≤ 10 | ≤ 10 | 10 to 50 | ≤ 10 | C=CC(=O)Nc1cc(N2CCC(N3CCN(CCO)CC3)CC2)ccc1Nc1ncc(C#N)c(Nc2ccccc2OC(C)C)n1 [Example 59, N-(2-((5-cyano-4-((2-isopropoxyphenyl)amino)pyrimidin-2-yl)amino)-5-(4-(4-(2-hydroxyethyl)piperazin-1-yl)piperidin-1-yl)phenyl) acrylamide]
≤ 10 | ≤ 10 | ≤ 10 | ≤ 10 | C=CC(=O)Nc1cc(N2CCC(N(C)CCCOC)CC2)ccc1Nc1ncc(C#N)c(Nc2ccccc2OC(C)C)n1 [Example 69, N-(2-((5-cyano-4-((2-isopropoxyphenyl)amino)pyrimidin-2-yl)amino)-5-(4-((3-methoxypropyl) (methyl)amino)piperidin-1-yl)phenyl) acrylamide]
≤ 10 | ≤ 10 | 10 to 50 | 10 to 50 | C=CC(=O)Nc1cc(N2CCC(N3CCS(=O)(=O)CC3)CC2)ccc1Nc1ncc(C#N)c(Nc2ccccc2OC(C)C)n1 [Example 76, N-(2-((5-cyano-4-((2-isopropoxyphenyl)amino)pyrimidin-2-yl)amino)-5-(4-(1,1-dioxidothiomorpholino)piperidin-1-yl)phenyl) acrylamide]
